Measurements: ChEMBL document CHEMBL4651402, “Screening of ~5500 FDA-approved drugs and clinical candidates for anti-SARS-CoV-2 activity” (2021)

Test system: SARS-CoV-2
Assay: microbe, parasite or virus in culture
Conditions: Severe acute respiratory syndrome coronavirus 2, Vero C1008, 48 h

| SMILES | IC50 [µM] | IC50 (read-out: pIC50 (converted)) [µM] |
| --- | --- | --- |
| CCN(CC)CC(=O)Nc1c(C)cc(C)cc1C [TRIMECAINE] | > 20 | > 20 |
| COc1ccc(CN2CCNCC2)c(OC)c1OC [TRIMETAZIDINE] | > 20 | > 20 |
| CN1C(=O)OC(C)(C)C1=O [TRIMETHADIONE] | > 20 | > 20 |
| COc1cc(C(=O)NCc2ccc(OCCN(C)C)cc2)cc(OC)c1OC [TRIMETHOBENZAMIDE] | > 20 | > 20 |
| COc1cc(Cc2cnc(N)nc2N)cc(OC)c1OC [TRIMETHOPRIM] | > 20 | > 20 |
| CC(CC(c1ccccc1)c1ccccc1)N(C)C (stereo not given) [TRIMETHYLDIPHENYLPROPYLAMINE] | > 20 | > 20 |
| COc1cc(C(=O)N2CCOCC2)cc(OC)c1OC [TRIMETOZINE] | > 20 | > 20 |
| COc1cc(NCc2ccc3nc(N)nc(N)c3c2C)cc(OC)c1OC [TRIMETREXATE] | > 20 | > 20 |
| CC(CN(C)C)CN1c2ccccc2CCc2ccccc21 (stereo not given) [TRIMIPRAMINE] | > 20 | > 20 |
| Cc1cc2cc3c(C)cc(=O)oc3c(C)c2o1 [TRIOXSALEN] | > 20 | > 20 |
| CN(C)CCN(Cc1ccccc1)c1ccccn1 [TRIPELENNAMINE] | > 20 | > 20 |
| Cc1ccc(/C(=C\CN2CCCC2)c2ccccn2)cc1 [TRIPROLIDINE] | > 20 | > 20 |
| COc1cc(C(=S)N2CCOCC2)cc(OC)c1OC [TRITIOZINE] | > 20 | > 20 |
| O=c1[nH]c(=O)n(Cl)c(=O)n1Cl [TROCLOSENE] | > 20 | > 20 |
| Cc1c(C)c2c(c(C)c1O)CCC(C)(COc1ccc(CC3SC(=O)NC3=O)cc1)O2 (stereo not given) [TROGLITAZONE] | > 20 | > 20 |
| Cc1c(C)c2c(c(C)c1O)CCC(C)(C(=O)O)O2 (stereo not given) [TROLOX] | > 20 | > 20 |
| NC(CO)(CO)CO [TROMETHAMINE] | > 20 | > 20 |
| CCN(Cc1ccncc1)C(=O)C(CO)c1ccccc1 (stereo not given) [TROPICAMIDE] | > 20 | > 20 |
| CN1[C@@H]2CC[C@H]1C[C@@H](OC(=O)c1c[nH]c3ccccc13)C2 [TROPISETRON] | > 20 | > 20 |
| N[C@@H]1[C@H]2CN(c3nc4c(cc3F)c(=O)c(C(=O)O)cn4-c3ccc(F)cc3F)C[C@@H]12 [TROVAFLOXACIN] | > 20 | > 20 |

| SMILES | IC50 [µM] | IC50 (read-out: pIC50 (converted)) [µM] |
| --- | --- | --- |
| COc1cc(C(=O)NC2CCCNC2)cc(OC)c1OC (stereo not given) [TROXIPIDE] | > 20 | > 20 |
| NCCc1c[nH]c2ccccc12 [TRYPTAMINE] | > 20 | > 20 |
| N[C@@H](Cc1c[nH]c2ccccc12)C(=O)O [TRYPTOPHAN] | > 20 | > 20 |
| Nc1ncnc2c1ccn2[C@@H]1O[C@H](CO)[C@@H](O)[C@H]1O [TUBERCIDIN] | > 20 | > 20 |
| CC(C)(C)NCC(O)c1ccccc1Cl (stereo not given) [TULOBUTEROL] | > 20 | > 20 |
| CCCCNC(=O)OCC(C)(CCC)COC(N)=O (stereo not given) [TYBAMATE] | > 20 | > 20 |
| NCCc1ccc(O)cc1 [TYRAMINE] | > 20 | > 20 |
| CC(C)C[C@H](NC(=O)[C@@H](O)[C@H](N)Cc1ccccc1)C(=O)O [UBENIMEX] | > 20 | > 20 |
| COC1=C(OC)C(=O)C(C/C=C(\C)CC/C=C(\C)CC/C=C(\C)CC/C=C(\C)CC/C=C(\C)CC/C=C(\C)CC/C=C(\C)CC/C=C(\C)CC/C=C(\C)CCC=C(C)C)=C(C)C1=O [UBIDECARENONE] | > 20 | > 20 |
| CC(C)=CCOc1cc(NC(=S)c2ccoc2C)ccc1Cl [UC 781] | > 20 | > 20 |
| CC[C@@H]1CN(C(=O)NCC(F)(F)F)C[C@@H]1c1cnc2cnc3[nH]ccc3n12 [UPADACITINIB] | > 20 | > 20 |
| O=c1cc[nH]c(=O)[nH]1 [URACIL] | > 20 | > 20 |
| NC(N)=O [UREA] | > 20 | > 20 |
| COc1ccc(C(=O)CC(=O)O)c2c1C=CC(C)(C)O2 [URSINOIC ACID] | > 20 | > 20 |
| C[C@H](CCC(=O)O)[C@H]1CC[C@H]2[C@@H]3[C@@H](O)C[C@@H]4C[C@H](O)CC[C@]4(C)[C@H]3CC[C@]12C [URSODIOL] | > 20 | > 20 |
| COC(=O)[C@H](c1ccccc1)N1CCC(c2ccc(NC(=O)c3ccccc3-c3ccc(C(F)(F)F)cc3)cc2)CC1 [USISTAPIDE] | > 20 | > 20 |
| Cc1cccc(-c2[nH]c(CNc3ccccc3F)nc2-c2ccc3ncnn3c2)n1 [VACTOSERTIB] | > 20 | > 20 |
| Cc1ccc2c(=O)c3cccc(CC(=O)O)c3oc2c1C [VADIMEZAN] | > 20 | > 20 |
| CC(C)[C@H](N)C(=O)OCCOCn1cnc2c(=O)nc(N)[nH]c21 [VALACYCLOVIR] | > 20 | > 20 |
| Cc1onc(-c2ccccc2)c1-c1ccc(S(N)(=O)=O)cc1 [VALDECOXIB] | > 20 | > 20 |

| SMILES | IC50 [µM] | IC50 (read-out: pIC50 (converted)) [µM] |
| --- | --- | --- |
| CC(C)[C@H](N)C(=O)OCC(CO)OCn1cnc2c(=O)[nH]c(N)nc21 (stereo not given in full) [VALGANCICLOVIR] | > 20 | > 20 |
| CCC(C)C(CC)C(N)=O (stereo not given) [VALNOCTAMIDE] | > 20 | > 20 |
| CC(C)[C@H](N)C(=O)O[C@@H]1[C@@H](CO)O[C@@H](n2ccc(N)nc2=O)[C@]1(C)O [VALOPICITABINE] | > 20 | > 20 |
| CCCC(CCC)C(=O)O [VALPROIC ACID] | > 20 | > 20 |
| CCCC(CCC)C(N)=O [VALPROMIDE] | > 20 | > 20 |
| C/C=C/C[C@@H](C)C(=O)[C@H]1C(=O)N[C@@H](C(C)C)C(=O)N(C)CC(=O)N(C)[C@@H](CC(C)C)C(=O)N[C@@H](C(C)C)C(=O)N(C)[C@@H](CC(C)C)C(=O)N[C@@H](C)C(=O)N[C@H](C)C(=O)N(C)[C@@H](CC(C)C)C(=O)N(C)[C@@H](CC(C)C)C(=O)N(C)[C@@H](C(C)C)C(=O)N1C [VALSPODAR] | > 20 | > 20 |
| CC(C)[C@H](N)C(=O)O[C@@H]1C[C@@H](n2ccc(N)nc2=O)O[C@H]1CO [VALTORCITABINE] | > 20 | > 20 |
| CN[C@H](CC(C)C)C(=O)N[C@H]1C(=O)N[C@@H](CC(N)=O)C(=O)N[C@H]2C(=O)N[C@H]3C(=O)N[C@H](C(=O)N[C@H](C(=O)O)c4cc(O)cc(O)c4-c4cc3ccc4O)[C@H](O)c3ccc(c(Cl)c3)Oc3cc2cc(c3O[C@@H]2O[C@H](CO)[C@@H](O)[C@H](O)[C@H]2O[C@H]2C[C@](C)(N)[C@H](O)[C@H](C)O2)Oc2ccc(cc2Cl)[C@H]1O [VANCOMYCIN] | > 20 | > 20 |
| COc1cc2/c(=N/c3ccc(Br)cc3F)nc[nH]c2cc1OCC1CCN(C)CC1 [VANDETANIB] | > 20 | > 20 |
| Fc1ccc(C(OCCN2CCN(CCCc3ccccc3)CC2)c2ccc(F)cc2)cc1 [VANOXERINE] | > 20 | > 20 |
| NC(=O)c1cnc2n1CCc1ccccc1C21CCNCC1 [VAPITADINE] | > 20 | > 20 |
| c1cnc2cc3c(cc2n1)[C@@H]1CNC[C@H]3C1 [VARENICLINE] | > 20 | > 20 |
| C[C@@H]1COC(Nc2ccc3ncnc(Nc4ccc(OCc5nccs5)c(Cl)c4)c3c2)=N1 [VARLITINIB] | > 20 | > 20 |
| Clc1ccc(Nc2nnc(Cc3ccncc3)c3ccccc23)cc1 [VATALANIB] | > 20 | > 20 |
| CC(=O)O[C@H]1C[C@@H]2CC[C@@H]3[C@H](CC[C@@]4(C)[C@H]3C[C@H]([N+]3(C)CCCCC3)[C@@H]4OC(C)=O)[C@@]2(C)C[C@@H]1N1CCCCC1 [VECURONIUM] | > 20 | > 20 |
| C[C@]1(c2nc3c(C(N)=O)cccc3[nH]2)CCCN1 [VELIPARIB] | > 20 | > 20 |
| Nc1c2c(nc3ccccc13)CCCC2O (stereo not given) [VELNACRINE] | > 20 | > 20 |
| CCCS(=O)(=O)Nc1ccc(F)c(C(=O)c2c[nH]c3ncc(-c4ccc(Cl)cc4)cc23)c1F [VEMURAFENIB] | > 20 | > 20 |
| COc1ccc(C(CN(C)C)C2(O)CCCCC2)cc1 (stereo not given) [VENLAFAXINE] | > 20 | > 20 |
| COc1cc2c(cc1OC)C(C)N(CCc1ccc(N)cc1)CC2 (stereo not given) [VERADOLINE] | > 20 | > 20 |
